Measured values: article PMC8424644, “Thermodynamic Stability and Speciation of Ga(III) and Zr(IV) Complexes with High-Denticity Hydroxamate Chelators” (Inorganic Chemistry, 2021)
Marks after values point to notes of the source that are not given here.

Columns and labels:
Type in all cases: physicochemical
[1] = Fe(III) complex stability, potentiometric titrations; conditions: 25 °C, I = 0.1 M NaClO4
From the text: To evaluate the thermodynamic stability of Ga(III) and Zr(IV) complexes of the investigated ligands, the binding properties and speciation of Fe(III) complexes have first been determined (all the details are given in the Supporting Information). There are several reasons for this protocol. First, (i) the electron configuration of Ga(III) (d^10) and Zr(IV) (d^0) hinders the attainment of spectral information for most of the complexes. Furthermore, (ii) both metal ions are highly acidic and they are readily hydrolyzed over almost the entire pH range. In addition, (iii) the high charge to size ratio of the Zr(IV) ion implies the formation of complexes with an exceptional thermodynamic stability (already at very low pH); as a consequence, the stability constants cannot be directly determined using standard potentiometric titrations. Thus, the thermodynamic stability constants of the Fe(III)-H3L1 and Fe(III)-H4L2 systems were first determined (using a combination of potentiometric and pH-dependent UV–vis titrations), followed by Fe(III)–Ga(III) and Fe(III)–Zr(IV) metal–metal competition experiments. […]
Accordingly, the following speciation could be drawn from the spectra collected: the complexes formation starts at pH<1 involving two hydroxamate groups coordinated to Fe(III) ion, while the three hydroxamate complexes are observed over pH range 3-9. Above pH 9, the absorbance begins to […]

[2] = pZr calculation (ligand sequestering ability); conditions: for pZr: pZr = −log[Zr(IV)free], pH 7.4, cL = 10 μM, cZr(IV) = 1 μM
From the text: Despite a large variety of PET chelators synthesized and tested in order to provide strong coordination of Ga(III) and Zr(IV) in vivo, until now it is has been hard to avoid the release of these metal ions in the body. Here we report two new Ga(III) and Zr(IV) hydroxamate chelators, designed to achieve an efficient sequestering of these metal ions but also to understand how the cyclization and the introduction of an additional hydroxamate group influences the stability of Zr(IV) complexes. Therefore, it is important to evaluate and compare the Ga(III)- and Zr(IV)-sequestering abilities of H3L1 and H4L2 with those of other chelators. However, the direct comparison of the stability constants of metal complexes is not straightforward, and other tools taking into account all the physicochemical properties of the ligands, i.e. their denticity, coordination modes, and acid–base properties, should be used.[52] In order to reliably compare the chelating abilities of H3L1 and H4L2 toward Ga(III) and Zr(IV) ions, the pM values were calculated. pFe was originally introduced by Raymond for the comparison of iron-siderophore systems;[53] pGa = −log[Ga(III)free] and pZr = −log[Zr(IV)free] were calculated at pH 7.4 with cL = 10 μM and cGa(III)/Zr(IV) = 1 μM (Table 2).

[3] = Ligand protonation constants, potentiometric titrations
From the text: The metal affinity of a ligand depends on its acid-base properties; therefore, the protonation equilibria of […] and […] were first investigated. The proton-dissociation processes of the ligands were followed by potentiometric titrations in the pH range 2-11. The hydrolytic stability of the ligands was monitored by a second titration of the same sample with NaOH, following back-acidification of the initially titrated sample. […] As was previously reported in the example of α- and β-alanine hydroxamic acids, the amino group may be more acidic than the hydroxamic group, or vice versa. […] However, such a precise analysis is not needed for the determination of the stability of […]-metal complexes and therefore was not performed. […] The potentiometric titrations of ligands and their complexes were carried out using a Titrando 905 (Metrohm) automatic titrator system, equipped with a combined glass electrode (Mettler Toledo, InLab Semi-Micro, with […] Polymer filling) and a 800 Dosino dosing system, equipped with a a 2 mL micro buret. The ionic strength was fixed at I = 0.1 M with NaClO4. The electrode was calibrated daily in terms of hydrogen ion concentration using HClO4 (0.1 M) with CO2-free NaOH solutions (0.1 M).[76] A stream of high-purity argon, presaturated with water vapor, was passed over the surface of the solution cell, the cell was filled with 50 mL of the studied solution, and the system was thermostated at 25.0 ± 0.2 °C. At least three titrations were performed for each system, with a starting concentration of the ligand of 1 mM and a 1:1 metal to ligand molar ratio with a 10% excess of the ligand in the pH range 2-11. The purity and exact concentration of the ligand solutions were determined using the Gran method.[77] Special care was taken to ensure that complete equilibration was attained. […] The potentiometric data were refined with the […][78] and […][79] programs, which use nonlinear least-squares methods.

[4] = potentiometric titrations, 25 °C, I = 0.1 M NaClO4

log β [FeL] [1] | pZr [2] | log K LH2 (ligand protonation) [3, 4] | log K LH3 (ligand protonation) [3, 4] | log K LH (ligand protonation) [3, 4] | log β LH2 (ligand protonation) [3, 4] | log β LH3 (ligand protonation) [3, 4] | log β LH (ligand protonation) [3, 4] | log β [FeHL] [1] | pZr higher than the values for Zr(IV)-DFOB and Zr(IV)-H3L1 [2] [units] | protonation constant of the amino group (log K) ([3]; not detectable in the experimental pH range 2–11, assumed on the basis of DFOB) | log K LH4 (ligand protonation) [3, 4] | log β LH4 (ligand protonation) [3, 4] | Compound
28.7(1) ^d | 32.4 | 9.24 ^d | 8.31 ^d | 9.89 ^d | 19.13(1) ^d | 27.44(1) ^d | 9.89(1) ^d | – | – | – | – | – | O=C1CCCN(O)C(=O)CCCNC(=O)CCCN(O)C(=O)CCCNC(=O)CCCN(O)C(=O)CCCN1 [H3L1, 1,11,21-Trihydroxy-1,6,11,16,21,26-hexaazacyclotriacontane-2,7,12,17,22,27-hexaone]
– | 37.0 | 9.59 ^d | 8.94 ^d | 10.06 ^d | 19.65(1) ^d | 28.59(1) ^d | 10.06(1) ^d | 36.82(6) ^d | > 4 | > 11 | 8.18 ^d | 36.77(1) ^d | N[C@H]1CCCCNC(=O)CCCN(O)C(=O)CCCNC(=O)CCCN(O)C(=O)CCCNC(=O)CCCN(O)C(=O)CCCNC(=O)CCCN(O)C(=O)CCCNC1=O [H4L2, (S)-43-Amino-6,16,26,36-tetrahydroxy-1,6,11,16,21,26,31,36,41-nonaazacycloheptatetracontane-2,7,12,17,22,27,32,37,42-nonaone]
